# Data published in patent publication US11260003B2, “Antimicrobial composition and cosmetic containing antimicrobial composition” (ADEKA CORPORATION, priority 2017, dated 2022).
# How the values were obtained:
# Type in all cases: cell-based
# [1] = system: Escherichia coli ATCC 8739, Pseudomonas aeruginosa ATCC 9027, Staphylococcus aureus ATCC 6538, Candida albicans ATCC 10231, Aspergillus brasiliensis ATCC 16404; assay: five-species minimum inhibitory concentration (five-species MIC), microplate turbidity test
# Description: Test solutions containing these microorganisms were prepared as follows: the bacteria were precultured on SCD (soybean casein digest) liquid medium and the yeast and fungus were precultured on glucose agar medium; this was followed in each case by adjustment of the microorganism concentration in the liquids to the level of 10^6 to 10^7 cfu/mL using 0.9% aqueous NaCl solution.
# 20 μL of each test solution was dispensed onto a microplate; 180 μL of each antimicrobial composition—prepared by the dilution with medium of component (B) and component (C) at the prescribed concentrations given in Table 1 and component (A) at various concentrations was added; and stirring was carried out to provide a mixed solution (the test sample). Component (A), component (B), and component (C) were prepared here so as to provide the prescribed concentrations in mass % in the mixed solutions. Each mixed solution was then cultured as follows: 48 hours in a thermostat at 33° C. for the bacterial mixed solutions; 3 days at 25° C. for the yeast mixed solutions; and 1 week at 25° C. for the fungus mixed solutions. The post-culture turbidity of each mixed solution was observed. For each microorganism, the mixed solutions containing component (A) at the various concentrations, and each blending condition for component (B) or component (C) (each of the mixed solutions), those mixed solutions were identified where turbidity or the presence of colonies/filaments was not seen (i.e., mixed solutions where growth of the test microorganism had been stopped). For each of the five microorganisms, the lowest component (A) concentration in the mixed solutions where growth had been stopped was designated the minimum inhibitory concentration. […] In addition, the antimicrobial activity (enhancement effect) was evaluated also using the numerical MIC values given in those instances where a “+” or “−” is provided.
# [2] = system: Pseudomonas aeruginosa (bacteria) ATCC 9027; assay: minimum inhibitory concentration (MIC), microplate turbidity test; conditions: mass % of component (A) (A-4 or A-5); 48 hours at 33° C.; component (B)/(C) at 5%
# Description: (§1) P. aer: Pseudomonas aeruginosa (bacteria) ATCC 9027 Test solutions containing these microorganisms were prepared by preculture on SCD liquid medium followed by adjusting the microorganism concentration in the liquids to the level of 10^6 to 10^7 cfu/mL using a 0.9% aqueous NaCl solution. 20 μL of each test solution was dispensed onto a microplate; 180 μL of each antimicrobial composition—prepared by the dilution with medium of component (B) and component (C) at the prescribed concentrations and component (A) at various concentrations—was added; and stirring was carried out to provide a mixed solution (the test sample). Component (A), component (B), and component (C) were prepared here so as to provide the prescribed concentrations in mass % in the mixed solutions. Each mixed solution was then cultured for 48 hours in a thermostat at 33° C., after which the turbidity of each mixed solution was observed. […]
# [3] = system: Escherichia coli (bacteria) ATCC 8739; assay: as above; conditions: mass % of component (A) (A-4 or A-5); 48 hours at 33° C.; component (B)/(C) at 5%
# Description: as §1, with “E. coli: Escherichia coli” for “P. aer: Pseudomonas aeruginosa”, “8739” for “9027”
SMILES,MIC (%) P. aer [2],MIC (%) E. coli [3],also measured
"OCC(O)COC1CCCCC1 (stereo not shown) [Comp. Ex. 9, cyclohexyl glyceryl ether]",,,"five-species MIC (%) ([1]; Table 3, mass % of component (A) A-3 at which growth of all five microorganisms stopped, component (B) at prescribed %): 3.00%"
"CCCCCCOCC(O)CO (stereo not shown) [compound 14, hexyl glyceryl ether]",0.75%,0.25%,
"CCCCCCC(O)CO (stereo not shown) [Comp. Ex. 10, 1,2-octanediol]",0.38%,0.13%,
"CCCCC(CC)COCC(O)CO (stereo not shown) [Comp. Ex. 1, 2-ethylhexyl glyceryl ether]",,,"five-species MIC (%) ([1]; Table 1, mass % of component (A) A-1 at which growth of all five microorganisms stopped, component (B)/(C) at prescribed %): 1.00+ %"
"CCCCCCCCOCC(O)CO (stereo not shown) [Comp. Ex. 5, octyl glyceryl ether]",,,"five-species MIC (%) ([1]; Table 2, mass % of component (A) A-2 at which growth of all five microorganisms stopped, component (B)/(C) at prescribed %): 0.50+ %"
